The record followed here is article PMC5807903, “Combination of Virtual Screening Protocol by in Silico toward the Discovery of Novel 4-Hydroxyphenylpyruvate Dioxygenase Inhibitors” (Frontiers in Chemistry, 2018).

Like-named read-outs stand apart in the source and are kept apart here.

In general, IC50 refers to the concentration at which inhibition is half-maximal.

The target in the assay is T1, AtHPPD (Arabidopsis thaliana, UniProt P93836).
T1 construct: gene HPD; recombinant enzyme supplied by Guangfu Yang research team; Fe(II) enzyme; PDB 1TFZ used for docking only
T1 sequence (P93836 1-445): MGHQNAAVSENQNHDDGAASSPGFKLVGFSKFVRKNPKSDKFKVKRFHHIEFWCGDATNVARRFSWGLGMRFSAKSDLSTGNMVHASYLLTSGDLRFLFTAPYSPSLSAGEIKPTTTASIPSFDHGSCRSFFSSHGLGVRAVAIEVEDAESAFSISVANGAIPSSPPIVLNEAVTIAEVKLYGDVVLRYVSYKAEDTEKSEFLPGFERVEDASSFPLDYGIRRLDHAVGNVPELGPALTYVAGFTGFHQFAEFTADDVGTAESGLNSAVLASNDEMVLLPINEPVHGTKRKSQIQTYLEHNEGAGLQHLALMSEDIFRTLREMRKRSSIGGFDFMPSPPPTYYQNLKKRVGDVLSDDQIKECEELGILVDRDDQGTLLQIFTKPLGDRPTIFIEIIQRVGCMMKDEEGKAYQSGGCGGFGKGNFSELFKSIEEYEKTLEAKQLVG
The assay is described as follows: HGD-coupled assay, maleylacetoacetate at […] nm. The format is biochemical.

With `CS(=O)(=O)c1ccc(C(=O)C2C(=O)CCCC2=O)c([N+](=O)[O-])c1` [Control 1, mesotrione], half-maximal inhibition (IC50) required 0.204 µM.

With `Cc1cc(O)c(C(=O)/C=C/c2ccccc2)c(=O)o1` [compound 3881, 3-cinnamoyl-4-hydroxy-6-methyl-2H-pyran-2-one], the IC50 (read-out: IC50) was found to be 2.49 µM.
